Results: PubChem BioAssay (NCI)
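Each compound was tested at five concentrations against cells in 96-well plates for 48 hours. TGI: total growth inhibition.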

What was measured:
Experiment in all cases: NCI tumour cell line growth inhibition, 48 h
SK-MEL-2 melanoma = system: SK-MEL-2 melanoma
M19-MEL melanoma = system: M19-MEL melanoma
U251 CNS = system: U251 CNS
HCC-2998 colon = system: HCC-2998 colon
DMS 114 small cell lung = system: DMS 114 small cell lung
UACC-62 melanoma = system: UACC-62 melanoma
LXFL 529 NSCLC = system: LXFL 529 NSCLC
HOP-18 NSCLC = system: HOP-18 NSCLC
UACC-257 melanoma = system: UACC-257 melanoma
EKVX NSCLC = system: EKVX NSCLC
SN12C renal = system: SN12C renal
NCI-H226 lung = system: NCI-H226 lung
SNB-75 CNS = system: SNB-75 CNS
SNB-19 CNS = system: SNB-19 CNS
NCI-H23 lung = system: NCI-H23 lung
SK-OV-3 ovarian = system: SK-OV-3 ovarian
HCT-15 colon = system: HCT-15 colon
OVCAR-4 ovarian = system: OVCAR-4 ovarian
HL-60(TB) leukemia = system: HL-60(TB) leukemia
HOP-62 NSCLC = system: HOP-62 NSCLC
A549 NSCLC = system: A549 NSCLC
SW-620 colon = system: SW-620 colon
HCT-116 colon = system: HCT-116 colon
NCI-H522 lung = system: NCI-H522 lung
ACHN renal = system: ACHN renal
SF-295 CNS = system: SF-295 CNS
SNB-78 CNS = system: SNB-78 CNS
SF-268 CNS = system: SF-268 CNS
OVCAR-8 ovarian = system: OVCAR-8 ovarian
HT29 colon = system: HT29 colon
SF-539 CNS = system: SF-539 CNS
OVCAR-5 ovarian = system: OVCAR-5 ovarian
NCI-H460 lung = system: NCI-H460 lung
M14 melanoma = system: M14 melanoma
SK-MEL-5 melanoma = system: SK-MEL-5 melanoma
CCRF-CEM leukemia = system: CCRF-CEM leukemia
LOX IMVI melanoma = system: LOX IMVI melanoma
786-0 renal = system: 786-0 renal
OVCAR-3 ovarian = system: OVCAR-3 ovarian
UO-31 renal = system: UO-31 renal
A498 renal = system: A498 renal
XF 498 CNS = system: XF 498 CNS
KM20L2 colon = system: KM20L2 colon
HOP-92 NSCLC = system: HOP-92 NSCLC
IGROV1 ovarian = system: IGROV1 ovarian
KM12 colon = system: KM12 colon
RXF 393 renal = system: RXF 393 renal
DLD-1 colon = system: DLD-1 colon
MALME-3M melanoma = system: MALME-3M melanoma
COLO 205 colon = system: COLO 205 colon
TK-10 renal = system: TK-10 renal
SK-MEL-28 melanoma = system: SK-MEL-28 melanoma
K-562 leukemia = system: K-562 leukemia
MOLT-4 leukemia = system: MOLT-4 leukemia
SR leukemia = system: SR leukemia
DMS 273 small cell lung = system: DMS 273 small cell lung
CAKI-1 renal = system: CAKI-1 renal
RPMI-8226 leukemia = system: RPMI-8226 leukemia
RXF-631 renal = system: RXF-631 renal

CCCCCCCCCCCCCCNCC(OCC)OCC
TGI (SK-MEL-2 melanoma): 28.6 µM
TGI (M19-MEL melanoma): 30.5 µM
TGI (U251 CNS): 30.5 µM
TGI (HCC-2998 colon): 27.3 µM
TGI (DMS 114 small cell lung): 25.7 µM
TGI (UACC-62 melanoma): 33 µM
TGI (LXFL 529 NSCLC): 29 µM
TGI (HOP-18 NSCLC): 30.3 µM
TGI (UACC-257 melanoma): 31.2 µM
TGI (EKVX NSCLC): 34.7 µM
TGI (SN12C renal): 27.9 µM
TGI (NCI-H226 lung): 37.6 µM
TGI (SNB-75 CNS): 23 µM
TGI (SNB-19 CNS): 31.8 µM
TGI (NCI-H23 lung): 30.5 µM
TGI (SK-OV-3 ovarian): 32.8 µM
TGI (HCT-15 colon): 23.2 µM
TGI (OVCAR-4 ovarian): 28.6 µM
TGI (HL-60(TB) leukemia): 11.5 µM
TGI (HOP-62 NSCLC): 31.6 µM
TGI (A549 NSCLC): 37.6 µM
TGI (SW-620 colon): 31.9 µM
TGI (HCT-116 colon): 23.1 µM
TGI (NCI-H522 lung): 19.9 µM
TGI (ACHN renal): 27 µM
TGI (SF-295 CNS): 30.6 µM
TGI (SNB-78 CNS): 33.5 µM
TGI (SF-268 CNS): 36.7 µM
TGI (OVCAR-8 ovarian): 40.4 µM
TGI (HT29 colon): 11.4 µM
TGI (SF-539 CNS): 29.7 µM
TGI (OVCAR-5 ovarian): 28.6 µM
TGI (NCI-H460 lung): 34.3 µM
TGI (M14 melanoma): 27.5 µM
TGI (SK-MEL-5 melanoma): 27.9 µM
TGI (CCRF-CEM leukemia): 24.5 µM
TGI (LOX IMVI melanoma): 32.5 µM
TGI (786-0 renal): 33 µM
TGI (OVCAR-3 ovarian): 33.7 µM
TGI (UO-31 renal): 22.9 µM
TGI (A498 renal): 28.5 µM
TGI (XF 498 CNS): 27.4 µM
TGI (KM20L2 colon): 24.9 µM
TGI (HOP-92 NSCLC): 26.4 µM
TGI (IGROV1 ovarian): 30.3 µM
TGI (KM12 colon): 22.2 µM
TGI (RXF 393 renal): 22.9 µM
TGI (DLD-1 colon): 28.3 µM
TGI (MALME-3M melanoma): 32 µM
TGI (COLO 205 colon): 28 µM
TGI (TK-10 renal): 32.7 µM
TGI (SK-MEL-28 melanoma): 32.5 µM

CCOP(=O)(CC(=O)C1=C(O)C(CCCCNC(=O)OC(C)(C)C)N(Cc2ccccc2)C1=O)OCC (stereo not drawn)
TGI (SK-MEL-2 melanoma): > 100 µM
TGI (M19-MEL melanoma): > 100 µM
TGI (U251 CNS): > 100 µM
TGI (K-562 leukemia): > 100 µM
TGI (HCC-2998 colon): > 100 µM
TGI (DMS 114 small cell lung): > 100 µM
TGI (UACC-62 melanoma): > 100 µM
TGI (LXFL 529 NSCLC): > 100 µM
TGI (HOP-18 NSCLC): > 100 µM
TGI (UACC-257 melanoma): > 100 µM
TGI (EKVX NSCLC): > 100 µM
TGI (SN12C renal): > 100 µM
TGI (NCI-H226 lung): > 100 µM
TGI (SNB-75 CNS): > 100 µM
TGI (NCI-H23 lung): > 100 µM
TGI (SK-OV-3 ovarian): > 100 µM
TGI (OVCAR-4 ovarian): > 100 µM
TGI (HL-60(TB) leukemia): > 100 µM
TGI (HOP-62 NSCLC): > 100 µM
TGI (A549 NSCLC): > 100 µM
TGI (HCT-116 colon): > 100 µM
TGI (NCI-H522 lung): > 100 µM
TGI (ACHN renal): > 100 µM
TGI (MOLT-4 leukemia): > 100 µM
TGI (SF-295 CNS): > 100 µM
TGI (SF-268 CNS): > 100 µM
TGI (SR leukemia): > 100 µM
TGI (OVCAR-8 ovarian): > 100 µM
TGI (HT29 colon): > 100 µM
TGI (SF-539 CNS): > 100 µM
TGI (DMS 273 small cell lung): > 100 µM
TGI (OVCAR-5 ovarian): > 100 µM
TGI (NCI-H460 lung): > 100 µM
TGI (M14 melanoma): > 100 µM
TGI (SK-MEL-5 melanoma): > 100 µM
TGI (CCRF-CEM leukemia): > 100 µM
TGI (LOX IMVI melanoma): > 100 µM
TGI (786-0 renal): > 100 µM
TGI (OVCAR-3 ovarian): > 100 µM
TGI (UO-31 renal): > 100 µM
TGI (CAKI-1 renal): > 100 µM
TGI (A498 renal): > 100 µM
TGI (KM20L2 colon): > 100 µM
TGI (IGROV1 ovarian): > 100 µM
TGI (RPMI-8226 leukemia): > 100 µM
TGI (KM12 colon): > 100 µM
TGI (RXF 393 renal): > 100 µM
TGI (DLD-1 colon): > 100 µM
TGI (MALME-3M melanoma): > 100 µM
TGI (COLO 205 colon): > 100 µM
TGI (TK-10 renal): > 100 µM
TGI (SK-MEL-28 melanoma): > 100 µM

O=C1c2c(c3c4ccccc4[nH]c3c3[nH]c4ccccc4c23)C(=O)N1Cc1ccccc1
TGI (SK-MEL-2 melanoma): 10.6 µM
TGI (M19-MEL melanoma): 12.9 µM
TGI (U251 CNS): 6.34 µM
TGI (K-562 leukemia): 14.2 µM
TGI (HCC-2998 colon): 16.3 µM
TGI (DMS 114 small cell lung): 8.92 µM
TGI (UACC-62 melanoma): 16.2 µM
TGI (LXFL 529 NSCLC): 11.4 µM
TGI (UACC-257 melanoma): 13.3 µM
TGI (EKVX NSCLC): 23.7 µM
TGI (SN12C renal): 5.6 µM
TGI (NCI-H226 lung): 6.1 µM
TGI (SNB-75 CNS): 8.01 µM
TGI (SNB-19 CNS): 9.02 µM
TGI (NCI-H23 lung): 6.16 µM
TGI (SK-OV-3 ovarian): 9.49 µM
TGI (HCT-15 colon): 5.91 µM
TGI (OVCAR-4 ovarian): 10.5 µM
TGI (HOP-62 NSCLC): 14.8 µM
TGI (RXF-631 renal): 6.53 µM
TGI (A549 NSCLC): 13.5 µM
TGI (SW-620 colon): 10.9 µM
TGI (HCT-116 colon): 8.76 µM
TGI (NCI-H522 lung): 4.72 µM
TGI (ACHN renal): 11 µM
TGI (MOLT-4 leukemia): 7.51 µM
TGI (SF-295 CNS): 13.3 µM
TGI (SNB-78 CNS): 9.63 µM
TGI (SF-268 CNS): 14 µM
TGI (OVCAR-8 ovarian): 13.8 µM
TGI (HT29 colon): 14.5 µM
TGI (SF-539 CNS): 6.26 µM
TGI (DMS 273 small cell lung): 6.74 µM
TGI (OVCAR-5 ovarian): 7.61 µM
TGI (NCI-H460 lung): 13.5 µM
TGI (M14 melanoma): 10.9 µM
TGI (SK-MEL-5 melanoma): 3.56 µM
TGI (CCRF-CEM leukemia): 13.3 µM
TGI (LOX IMVI melanoma): 8.31 µM
TGI (786-0 renal): 11.3 µM
TGI (OVCAR-3 ovarian): 8.16 µM
TGI (UO-31 renal): 6.69 µM
TGI (CAKI-1 renal): 10.2 µM
TGI (KM20L2 colon): 8.57 µM
TGI (HOP-92 NSCLC): 5.65 µM
TGI (IGROV1 ovarian): 18.7 µM
TGI (RPMI-8226 leukemia): 6.74 µM
TGI (KM12 colon): 9.47 µM
TGI (RXF 393 renal): 4.12 µM
TGI (DLD-1 colon): 15.6 µM
TGI (MALME-3M melanoma): 11.9 µM
TGI (COLO 205 colon): 4.66 µM
TGI (TK-10 renal): 11.6 µM
TGI (SK-MEL-28 melanoma): 11.7 µM
